Here are results for one compound from patent US20240294533A1, “2-(HET)ARYL-SUBSTITUTED CONDENSED HETEROCYCLE DERIVATIVES AS PEST CONTROL AGENTS” (Bayer Aktiengesellschaft, priority 2021, published 2024).

What all share (assay type): in vivo
In one experiment the test system is Diabrotica balteata. Kind of experiment: Diabrotica balteata drench test. The note with it: 20 ppm, soil drench, maize, after 8 days. The text has this: Diabrotica balteata—Drench Test Solvent: 7 parts by weight of dimethylformamide Emulsifier: 2 parts by weight of alkylaryl polyglycol ether An appropriate active ingredient formulation is produced by mixing 1 part by weight of active ingredient with the specified amounts of solvent and emulsifier, and diluting the concentrate to the desired concentration with water, it being necessary to take account of the volume of soil which is drenched. It should be ensured that a concentration of 40 ppm of emulsifier in the soil is not exceeded. Further test concentrations are produced by diluting with water. 5 […] (Zea mays) in each case are sown into pots filled with earth, and the next day the pots are watered with the active ingredient preparation of the desired concentration. After one day, about 25 L2 larvae of the banded cucumber beetle (Diabrotica balteata) are added. After 8 days, efficacy in % is determined. 100% means that all 5 plants have germinated and grown; 0% means that none of the plants has emerged.

In a further experiment the test system is Nezara viridula. Nature of the experiment: Nezara viridula spray test (infected barley plants sprayed). The conditions noted are these: 100 g ai/ha, after 4 days.
For a further experiment, the system named is Plutella xylostella. Nature of the experiment: Plutella xylostella spray test (PLUTMA), comparative. The note with it: 168 h, 0.16 ppm, cabbage leaves, after 7 days. From the text:
Plutella xylostella Spray Test (PLUTMA) Solvent: 14 parts by weight of dimethylformamide Emulsifier: alkylaryl polyglycol ether An appropriate active ingredient formulation is produced by dissolving 1 part by weight of active ingredient with the stated parts by weight of solvent and making the solution up to the desired concentration with water containing an emulsifier concentration of 1000 ppm. Further test concentrations are produced by diluting the formulation with emulsifier-containing water. If the addition of ammonium salts or/and penetrants is required, these are each added in a concentration of 1000 ppm to the formulation solution. Cabbage leaves (Brassica oleracea) are sprayed with an active ingredient formulation of the desired concentration and infected with larvae of the diamondback moth (Plutella xylostella). After 7 days, the kill in % is determined. 100% means that all caterpillars have been killed; 0% means that none of the caterpillars have been killed.

Another experiment concerns Lucilia cuprina. Kind of experiment: Lucilia cuprina test. The note with it: 100 ppm, L1 larvae, after 2 days. The procedure:
Lucilia cuprina Test Solvent: dimethyl sulfoxide An appropriate active ingredient formulation is produced by mixing 10 mg of active ingredient with 0.5 ml of dimethyl sulfoxide and diluting the concentrate with water to the desired concentration. About 20 L1 larvae of the Australian sheep blowfly (Lucilia cuprina) are transferred into a test vessel containing minced horsemeat and the active ingredient formulation of the desired concentration. After 2 days, the kill rate in % is determined relative to the untreated control. 100% means that all the larvae have been killed; 0% means that no larvae have been killed.

A further experiment concerns Boophilus microplus. Kind of experiment: Boophilus microplus injection test. The conditions noted are these: 20 μg/tick, after 7 days, laying of fertile eggs. Here is the method: Boophilus microplus—Injection Test Solvent: dimethyl sulfoxide An appropriate active ingredient formulation is produced by mixing 10 mg of active ingredient with 0.5 ml of solvent and diluting the concentrate with solvent to the desired concentration. 1 μl of the active ingredient solution is injected into the abdomen of 5 engorged adult female cattle ticks (Boophilus microplus). The ticks are transferred into dishes and kept in a climate-controlled room. Efficacy is checked after 7 days by laying of fertile eggs. Eggs which are not visibly fertile are stored in a climate-controlled cabinet until the larvae hatch after about 42 days. Efficacy of 100% means that none of the ticks has laid any fertile eggs; 0% means that all the eggs are fertile.

The test system of the next experiment is Spodoptera frugiperda. Kind of experiment: Spodoptera frugiperda spray test (maize leaf discs). The conditions noted are these: Spodoptera frugiperda, foliar, 168 h, after 7 days, read-out: efficacy. In short, it runs like this:
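Maize leaf discs sprayed with compound formulated in acetone/DMF with alkylaryl polyglycol ether emulsifier (1000 ppm) in water, then infested with fall armyworm caterpillars after drying. Efficacy (% caterpillars killed) scored after 7 days; 100% means all killed, 0% none.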

The test system of a further experiment is Phaedon cochleariae. Nature of the experiment: Phaedon cochleariae spray test. The conditions noted are these: 100 g/ha, Chinese cabbage leaf discs, after 7 days. The text has this:
Phaedon cochleariae—Spray Test
Solvent: 78.0 parts by weight of acetone • • 1.5 parts by weight of dimethylformamide
Emulsifier: alkylaryl polyglycol ether
An appropriate active ingredient formulation is produced by dissolving 1 part by weight of active ingredient with the stated parts by weight of solvent and making the solution up to the desired concentration with water containing an emulsifier concentration of 1000 ppm. Further test concentrations are produced by diluting the formulation with emulsifier-containing water.
Discs of Chinese cabbage leaves (Brassica pekinensis) are sprayed with an active ingredient formulation of the desired concentration and, after drying, populated with larvae of the mustard beetle (Phaedon cochleariae).
After 7 days, efficacy in % is determined. 100% means that all the beetle larvae have been killed; 0% means that no beetle larvae have been killed.

The test system of the next experiment is Myzus persicae. Kind of experiment: Myzus persicae oral test. The conditions noted are these: 4 ppm, after 5 days. The procedure:
Myzus persicae—Oral Test Solvent: 100 parts by weight of acetone An appropriate active ingredient formulation is produced by dissolving 1 part by weight of active ingredient with the specified parts by weight of solvent and making the solution up to the desired concentration with water. 50 μl of the active ingredient formulation is transferred into microtitre plates and made up to a final volume of 200 μl with 150 μl of IPL41 insect medium (33%+15% sugar). Subsequently, the plates are sealed with parafilm, which a mixed population of green peach aphids (Myzus persicae) within a second microtitre plate is able to puncture and imbibe the solution. After 5 days, efficacy in % is determined. 100% means that all the aphids have been killed; 0% means that no aphids have been killed.

Turning to `CCS(=O)(=O)c1ccc(-n2ncn(-c3ccc(Cl)cc3)c2=O)nc1-c1nc2cc(C(F)(F)C(F)(F)F)cnc2n1C` [Example I-23], the efficacy is given as 100% in the experiment on Diabrotica balteata; 100% in the experiment on Nezara viridula; 90% with Boophilus microplus; 100% in the experiment with Phaedon cochleariae; 100% in the experiment on Myzus persicae. Further, the efficacy at 0.16 ppm in the experiment on Plutella xylostella was found to be 90%. Also, in the experiment with Lucilia cuprina, the “efficacy (kill rate)” value worked out at 100%. For the same compound, in the experiment with Spodoptera frugiperda, the pest or weed control at 100 g/ha came out at 100%.
